Reference: patent publication US20100150948A1, “MATERIALS AND METHODS FOR IMPROVED IMMUNOGLYCOPROTEINS” (TRUBION PHARMACEUTICALS, INC., priority 2006, published 2010)

Columns and labels:
Ramos B cells = assay: CDC activity, propidium iodide flow cytometry with human serum; type: cell-based; conditions: TRU-016 from CHO cells cultured with 200 μM DMJ, 10 μM kifenunsine or 200 μM castanospermine
Procedure: To determine the CDC activity of TRU-016 purified protein produced according to Example 2, Ramos B cells were suspended in Iscoves (Gibco/Invitrogen, Grand Island, N.Y.) at 5×10^5 cells/well in 75 μl. TRU-016 (75 μl) were added to the cells at twice the concentrations indicated. Binding reactions were allowed to proceed for 45 minutes prior to centrifugation and washing in serum-free Iscoves. Cells were resuspended in Iscoves with human serum (containing complement) at various concentrations. The cells were incubated 60 minutes at 37° C. Cells were washed by centrifugation and resuspended in staining media with 0.5 μg/ml propidium iodide. Samples were incubated 15 minutes at room temperature in the dark prior to analysis by flow cytometry using a FACsCalibur and CellQuest software (Becton Dickinson).

[1] = test system: CD37-expressing Daudi cancer B-cell line; assay: Antibody Dependent Cellular Cytotoxicity (ADCC) assay, 51Cr release, PBL effector cells; type: cell-based, human; conditions: TRU-016 treated with CS over a range of 100 μM-800 μM final concentration
Procedure: TRU-016 produced as described in Example 8 is incubated with the CD37-expressing Daudi cancer B-cell line in conjunction with primary human peripheral blood lymphocytes (PBL's) effector cells to assess ADCC activity.
Daudi target cells (5×10̂6) are added to a 15 ml conical tube and then centrifuged at 250×g for 5 minutes at 20° C. and the supernatant removed. The cell pellet is resuspended by the addition of 0.3 mCi Chromium-51 (^51Cr, GE Healthcare, CJ51). The cells are incubated for 75 minutes at 37° C. with 5% CO2, allowing the cells to incorporate the radioactive isotope. The cells are then washed three times to remove any unincorporated ^51Cr. This is done by adding 10 mL of complete media—IMDM (Gibco) with 10% FBS (Gibco)—to the tube, centrifuging at 250×g for 5 minutes at 20° C. followed by removal of supernatant. The final resuspension is in 11.5 mL of complete media. TRU-016 is diluted in complete media, at concentrations that are able to generate maximal to background levels of cell lysis (500 ng/mL-0.005 ng/mL). These titrations are plated out, 50 μL/well, in a round bottom 96 well plate. The ^51Cr labeled target cells are added to the dose titrations of TRU-016 at 50 μL/well and the control wells (control media without TRU-016). PBL's are isolated from fresh heparinized whole blood by density gradient centrifugation using Lymphocyte Separation Media as per protocol (LSM, MP Biomedical, 50494/36427). […] The assay is incubated for 4.5-5 hours at 37° C., 5% CO2. The effector cells lyse the target cells relative to the TRU-016 concentration, releasing a proportional amount of ^51Cr into the assay supernatant. Following the incubation the plate is centrifuged at 250×g for 3 minutes at 20° C. A 25 μL volume of cell-free supernatant is removed from all wells to a scintillation plate (Perkin Elmer 6005185) and dried overnight. The amount of ^51Cr isotope in each well of the scintillation plate is measured using a Topcount plate reader (Perkin Elmer, C9904V0). The data are expressed as percent of specific release. Specific release is calculated as:
(Sample value−Spontaneous value)/(Maximum value−Spontaneous value)*100% • Spontaneous=amount of ^51Cr released from target cell only • Maximum release=amount of ^51Cr released from targets treated with detergent lysing agent • Background Control=amount of ^51Cr released from target cells+effector cells (No TRU-016)
A dose response is generated and fit to a 4-parameter logistic curve using SoftMax Pro software (Molecular Devices, ver 5.0.1). Titrations of TRU-016 are utilized to create dose response curves of test and reference material for comparison. The EC50 values for the treated articles are compared to the untreated control (no CS) to determine the percent increase in ADCC activity.

TRU-016: recombinant single chain protein (SMIP) that binds CD37; G28-1 binding domain, modified hinge, human IgG1 CH2 and CH3; SEQ ID NO: 2
CDC compared with protein produced by untreated CHO cells (Ramos B cells): similar
ADCC activity relative to untreated TRU-016 [1]: significantly increased
